In brackets after ≈: the same amount, converted by molar mass.

The values below come from ChEMBL document CHEMBL3352123, “Structure activity relationship study of curcumin analogues toward the amyloid-beta aggregation inhibitor” (Bioorg Med Chem Lett, 2014).

The nature of series [1]: Aqueous solubility of the compound after 12 hrs by shake-flask method. In kind it is physicochemical. The conditions noted are these: buffer.
For series [2], the target named is Amyloid-beta precursor protein (Homo sapiens) (UniProt P05067). Nature of the series: Inhibition of amyloid beta-42 self-aggregation (unknown origin) at 25 uM after 20 hrs by ThT fluorescence assay.
Chain of Amyloid-beta precursor protein (Homo sapiens) (P05067 whole entry): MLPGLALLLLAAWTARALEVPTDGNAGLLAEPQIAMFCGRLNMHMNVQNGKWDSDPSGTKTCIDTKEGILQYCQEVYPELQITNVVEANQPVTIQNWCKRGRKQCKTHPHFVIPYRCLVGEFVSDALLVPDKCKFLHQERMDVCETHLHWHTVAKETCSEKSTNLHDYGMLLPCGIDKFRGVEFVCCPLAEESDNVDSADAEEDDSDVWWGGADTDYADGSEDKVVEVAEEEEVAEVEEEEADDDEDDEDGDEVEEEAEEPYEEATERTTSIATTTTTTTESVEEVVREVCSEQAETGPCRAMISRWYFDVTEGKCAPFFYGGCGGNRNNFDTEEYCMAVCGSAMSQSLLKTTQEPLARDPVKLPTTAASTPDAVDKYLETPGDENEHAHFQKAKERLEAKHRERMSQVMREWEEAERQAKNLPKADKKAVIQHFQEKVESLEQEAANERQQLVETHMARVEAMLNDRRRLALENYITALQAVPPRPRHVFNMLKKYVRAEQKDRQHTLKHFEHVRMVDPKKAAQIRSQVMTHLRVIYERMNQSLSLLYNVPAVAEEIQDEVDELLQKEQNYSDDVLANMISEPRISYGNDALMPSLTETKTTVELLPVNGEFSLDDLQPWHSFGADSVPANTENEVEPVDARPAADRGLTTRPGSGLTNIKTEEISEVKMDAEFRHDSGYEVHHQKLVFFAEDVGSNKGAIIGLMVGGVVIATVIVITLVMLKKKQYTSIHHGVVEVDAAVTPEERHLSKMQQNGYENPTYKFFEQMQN

A word on the solubility (thermodynamic): it is the concentration in solution at equilibrium with solid. `Oc1cccc(/C=C/c2cc(/C=C/c3ccc(O)c(O)c3)n[nH]2)c1`: the solubility (thermodynamic) at 12 h in series [1] was 10 µM (≈ 3.2 µg/mL). The inhibition is how much of the control response was suppressed. With `O=C(/C=C/c1cccc(O)c1)CC(=O)/C=C/c1ccc(O)c(O)c1`, in series [1], the solubility (thermodynamic) at 12 h came to 6.2 µM (≈ 2.01 µg/mL). The same molecule registered an inhibition in series [2] of 99%. The like results for `O=C(/C=C/c1ccc(O)c(O)c1)CC(=O)/C=C/c1ccc(O)c(O)c1` [DIDEMETHYLCURCUMIN] were, in that order, 2.4 µM (≈ 0.817 µg/mL) and 99%. In series [1], `COc1cccc(/C=C/C(=O)CC(=O)/C=C/c2ccc(O)c(O)c2)c1` displayed a solubility (thermodynamic) at 12 h of 0.11 µM (≈ 0.0372 µg/mL). The molecule further registered an inhibition in series [2] of 95%. In series [1], `O=C(/C=C/c1cc(O)c(O)c(O)c1)CC(=O)/C=C/c1ccccc1O` displayed a thermodynamic solubility at 12 h of 47 µM (≈ 16 µg/mL). In series [2], the inhibition came out at 73%. In the case of `O=C(/C=C/c1cc(O)c(O)c(O)c1)CC(=O)/C=C/c1cc(O)c(O)c(O)c1`, the thermodynamic solubility at 12 h in series [1] is 6.2 µM (≈ 2.31 µg/mL). Also, the inhibition in series [2] turned out to be 46%.

As to `COc1ccc(/C=C/C(=O)/C=C(O)/C=C/c2ccc(OC)c(OC)c2)cc1OC`, the inhibition in series [2] amounted to 0%. In series [1], `COc1ccccc1/C=C/C(=O)CC(=O)/C=C/c1ccc(O)c(O)c1` displayed a thermodynamic solubility at 12 h of 0.12 µM (≈ 0.0406 µg/mL). In series [2], this molecule had an inhibition of 100%.

`N#Cc1cccc(/C=C/C(=O)CC(=O)/C=C/c2ccc(O)c(O)c2)c1` registered an inhibition in series [2] of 96%.

`O=C(/C=C/c1cccc(O)c1)CC(=O)/C=C/c1cccc(O)c1`: the inhibition in series [2] stood at 79%. In the case of `O=C(/C=C/c1ccc(O)cc1)CC(=O)/C=C/c1ccc(O)cc1`, in series [2], the inhibition turned out to be 75%. In the case of `COc1c(O)cc(/C=C/C(=O)CC(=O)/C=C/c2ccc(O)c(O)c2)cc1O`, the thermodynamic solubility at 12 h in series [1] was found to be 5.4 µM (≈ 2 µg/mL). In series [2], this molecule registered an inhibition of 100%.

In the case of `Oc1ccc(/C=C/c2cc(/C=C/c3ccccc3O)[nH]n2)cc1O`, in series [1], the solubility (thermodynamic) at 12 h came out at 16 µM (≈ 5.13 µg/mL). This molecule also had an inhibition in series [2] of 47%.

Regarding `COc1cc(/C=C/C(=O)CC(=O)/C=C/c2ccc(O)c(O)c2)cc(OC)c1OC`, in series [2], the inhibition was 95%.

As to `COc1cc(/C=C/C(=O)CC(=O)/C=C/c2ccc(O)c(OC)c2)ccc1O` [CURCUMIN], in series [1], the solubility (thermodynamic) at 12 h is 0.19 µM (≈ 0.07 µg/mL). In series [2], this molecule registered an inhibition of 80%. Turning to `O=C(/C=C/c1ccc(O)c(O)c1)CC(=O)/C=C/c1ccccc1O`, in series [1], the thermodynamic solubility at 12 h was found to be 31 µM (≈ 10.1 µg/mL). Further, the inhibition in series [2] turned out to be 100%. As for `COc1cc(/C=C/C(=O)C(C)(C)C(=O)/C=C/c2ccc(O)c(OC)c2)ccc1O`, the thermodynamic solubility at 12 h in series [1] came to 12 µM (≈ 4.76 µg/mL). For the same molecule, the inhibition in series [2] came to 30%. As to `COc1ccc(/C=C/C(=O)CC(=O)/C=C/c2ccc(O)c(O)c2)cc1`, in series [1], the thermodynamic solubility at 12 h came out at 0.009 µM (≈ 0.00305 µg/mL). This molecule also came in with an inhibition in series [2] of 95%. For `O=C(/C=C/c1ccc(O)cc1)CC(=O)/C=C/c1ccc(O)c(O)c1`, in series [1], the solubility (thermodynamic) at 12 h stood at 0.66 µM (≈ 0.214 µg/mL). This molecule also yielded an inhibition in series [2] of 89%. `O=C(/C=C/c1cccc([N+](=O)[O-])c1)CC(=O)/C=C/c1ccc(O)c(O)c1` gave an inhibition in series [2] of 97%. For the molecule `O=C(/C=C/c1ccc(O)c(O)c1)CC(=O)/C=C/c1cc(O)c(O)c(O)c1`, in series [1], the solubility (thermodynamic) at 12 h is 50 µM (≈ 17.8 µg/mL). The inhibition in series [2] amounted to 100%. The molecule `Oc1ccc(/C=C/c2cc(/C=C/c3ccc(O)c(O)c3)[nH]n2)cc1O` displayed a thermodynamic solubility at 12 h in series [1] of 98 µM (≈ 33 µg/mL). This molecule also returned an inhibition in series [2] of 90%.

Consider `O=C(/C=C/c1ccccc1O)CC(=O)/C=C/c1ccccc1O`, for which the inhibition in series [2] was determined as 80%. `COc1cc(/C=C/c2cc(/C=C/c3ccc(O)c(OC)c3)[nH]n2)ccc1O` [CURCUMIN PYRAZOLE] gave a solubility (thermodynamic) at 12 h in series [1] of 1.2 µM (≈ 0.437 µg/mL). In addition, the inhibition in series [2] stood at 51%.
